Some test systems named below: NCI/ADR-RES ovarian; MDA-N; DMS 114 small cell lung; DMS 273 small cell lung; KM20L2 colon; M19-MEL melanoma; SNB-78 CNS; XF 498 CNS.
What all share (test): inhibition of tumour cell growth, NCI panel, 48 h

Among the data in PubChem BioAssay (NCI) are GI50 and TGI values, retold here.

Where “and” joins values, the source holds several entries; their conditions need not be identical. Equal entries are not always repeated.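 Interpolation was linear, between the two tested concentrations surrounding the appropriate level; five concentrations were tested over 48 hours in 96-well plates. GI50 marks 50% less growth. TGI is the concentration that stops growth completely.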 Bounds are passed on as bounds.

Take `O=C(/C=C/OC(=O)c1cccc(Cl)c1)c1ccc(Cl)cc1`: in the assay with NCI/ADR-RES ovarian, the GI50 was 63.9 µM and the TGI was greater than 100 µM.

For the compound `CCn1ccc(NS(=O)(=O)c2ccc(N)cc2)nc1=O`, in the assay with NCI/ADR-RES ovarian, the GI50 was greater than 100 µM and the TGI is greater than 100 µM.

On to `CN(C)c1ccc2nc(CC(O)(C(F)(F)F)C(F)(F)F)ccc2c1`, for which the TGI with MDA-N and with NCI/ADR-RES ovarian was greater than 10 µM throughout.

Regarding `C[Si](C)(C)C(Sc1ccccc1)(Sc1ccccc1)Sc1ccccc1`, the TGI in the assay on DMS 114 small cell lung, in the assay with DMS 273 small cell lung, in the assay on KM20L2 colon, in the assay with M19-MEL melanoma, in the assay on SNB-78 CNS and in the assay on XF 498 CNS was greater than 100 µM each time.

For `COc1cnc2c(c1)C(=O)c1c-2n(CCCN2CCNCC2)c(=O)c2cc([N+](=O)[O-])ccc12`, in the assay with NCI/ADR-RES ovarian, the GI50 was 1.11 µM and the TGI worked out at 2.8 µM.

As to `CN(C)CCNC(=O)NC[C@H]1CC[C@@H]2[C@H](O1)c1cc(C(F)(F)F)ccc1N[C@H]2c1ccccc1`, in the assay with NCI/ADR-RES ovarian, the GI50 is 5.99 µM and the TGI was greater than 100 µM.

In the case of `C=CCc1c(O)c(C(=O)/C=C/c2ccccc2)c(OC)c2ccoc12`, in the assay with NCI/ADR-RES ovarian, the GI50 was 1.88 µM and the TGI was 4.91 µM.

`CCOC(=O)c1cccnc1C(OC(C)=O)OC(C)=O`: the TGI with DMS 114 small cell lung, in the assay with DMS 273 small cell lung, with KM20L2 colon, in the assay on M19-MEL melanoma, in the assay with SNB-78 CNS and with XF 498 CNS was greater than 100 µM throughout.

Turning to `O=c1cc(-c2ccccc2)[nH]c2cc(Cl)ccc12`, the TGI is 3.29 µM in the assay on DMS 114 small cell lung; 10.5 µM in the assay on DMS 273 small cell lung; 3.2 µM with KM20L2 colon; greater than 100 µM in the assay on M19-MEL melanoma; greater than 100 µM in the assay on SNB-78 CNS; 1.71 µM in the assay with XF 498 CNS.

Take `CN(C)c1ccc(N=C2C=CC(=O)c3ccccc32)cc1`: in the assay on NCI/ADR-RES ovarian, the GI50 was 3.95 µM and the TGI came to 72.6 µM.

As for `Cc1nccc2c3ccc(OCc4cn(-c5ccc(Cl)cc5)nn4)cc3n(CC(C)C)c12`, in the assay with NCI/ADR-RES ovarian, the GI50 was 1.73 µM and the TGI came out at 30.8 µM.

Consider `CCCN1CCC(c2ccc(Nc3nc(Nc4cc(F)ccc4C(N)=O)c4cc[nH]c4n3)c(OC)c2)CC1`, for which, in the assay on NCI/ADR-RES ovarian, the GI50 was 3.2 µM and the TGI was 8.37 µM.

Regarding `C#Cc1cccc(NC(=O)c2ccc(NC(=O)CCl)cc2)c1`, in the assay on NCI/ADR-RES ovarian, the GI50 is 19.6 µM and the TGI was determined as 67.1 µM.

The compound `O=C(O[C@H]1CCN2C[C@H]3C[C@H](CN4C(=O)CCC[C@H]34)[C@@H]2C1)c1ccc(O)cc1` registered a TGI in the assay on MDA-N greater than 100 µM.

As for `CN1CCN(Cc2ccc(NC(=O)c3cncc(C#Cc4cnc(N)c5cnccc45)c3)cc2C(F)(F)F)CC1`, in the assay with NCI/ADR-RES ovarian, the GI50 was 6.02 µM and the TGI was 15.9 µM.

As to `CN1CCN(Cc2cc(NC(=O)c3cccc(C#Cc4cccc5[nH]nc(N)c45)c3)cc(C(F)(F)F)c2)CC1`, in the assay on NCI/ADR-RES ovarian, the GI50 was 2.02 µM and the TGI is 4.2 µM.

Take `O=[N+]([O-])c1ccc(Sc2ccncn2)c([N+](=O)[O-])c1`: in the assay on NCI/ADR-RES ovarian, the GI50 is 4.46 µM and the TGI was determined as 14.1 µM.

On to `Cc1cc(=O)oc2cc(OC/C=C3\CCC(=O)O3)ccc12`, for which, in the assay on NCI/ADR-RES ovarian, the GI50 was 23 µM and the TGI amounted to 82.9 µM.

As to `COc1cccc2c1C(=O)c1c(O)c3c(c(O)c1C2=O)CC(O)(C(=O)CO)CC3OC1CC(N)C(O)C(C)O1` (stereo not given), in the assay with MDA-N, the GI50 is 37.5 µg/mL and 69.1 µg/mL; the TGI is 75 µg/mL and > 150 µg/mL.

Turning to `C[C@@H](Oc1cc(-n2cnc3ccc(OC[C@@H](O)CO)cc32)sc1C(N)=O)c1ccccc1Cl`, in the assay on NCI/ADR-RES ovarian, the GI50 was 1.64 µM and the TGI is greater than 25 µM.

Consider `CC1(C)N=C(N)N=C(N)N1c1cccc(Br)c1`, for which, in the assay on NCI/ADR-RES ovarian, the GI50 was greater than 63.5 µM and the TGI was greater than 100 µM.

With `COc1ccc2nc(NC(=O)C(=O)NNC(=O)c3ccncc3)sc2c1`, the TGI with DMS 114 small cell lung, in the assay on KM20L2 colon, with M19-MEL melanoma, with SNB-78 CNS and in the assay on XF 498 CNS was greater than 100 µM in each case.

`O=C1NC(c2cccc(OCc3ccccc3)c2)Nc2ccccc21` (stereo not given) showed a TGI with NCI/ADR-RES ovarian of 0.468 µM.

Turning to `[CH3][Sn]([CH3])([CH3])[O][N+](=O)[O-]`, in the assay with MDA-N, the GI50 is 5.14 µM and the TGI was greater than 10 µM. In the assay on NCI/ADR-RES ovarian, the GI50 is 2.3 µM and the TGI was determined as 5.7 µM.

On to `Nc1ncnc2c1ccn2[C@@H]1O[C@H]([C@H](O)c2ccc(Cl)c(F)c2)[C@@H](O)[C@H]1O`, for which, in the assay with NCI/ADR-RES ovarian, the GI50 was greater than 100 µM and the TGI was greater than 100 µM.

Consider `COCc1c(-c2ccc(NC(=O)Nc3cc(C(F)(F)F)ccc3F)c(F)c2)c2c(N)ncnn2c1CN1CCOCC1`, for which, in the assay on NCI/ADR-RES ovarian, the GI50 was 3.12 µM and the TGI was greater than 10 µM.

`C1C[OH+]CC[OH+]CCNCC[OH+]CC[OH+]CCN1.Cl.[Cl-].[Pt+4]`: in the assay with DMS 273 small cell lung, the GI50 was greater than 100 µM and the TGI is greater than 100 µM. Further, in the assay on KM20L2 colon, the GI50 was greater than 100 µM and the TGI is greater than 100 µM.

Turning to `COc1cccc(Nc2nccc(-c3cnn4ncccc34)n2)c1`, the GI50 in the assay on NCI/ADR-RES ovarian is 0.0679 µM.

Take `CCOC1CC2OC(=O)C1C=C2C(=O)OC` (stereo not given): the TGI in the assay on DMS 114 small cell lung was 54.9 µM; with KM20L2 colon, greater than 100 µM; in the assay with M19-MEL melanoma, greater than 100 µM; with SNB-78 CNS it was greater than 100 µM; in the assay on XF 498 CNS it was 53.9 µM.

Take `O=C(O)CCC(C(=O)O)N1C(=O)C2C3CCC(C3)C2C1=O` (stereo not given): the TGI in the assay on MDA-N and in the assay with NCI/ADR-RES ovarian was greater than 100 µM each time.

As to `CCN(CC)CCn1c2ccccc2c(=O)c2c(OC)ccc(OC)c21`, the TGI with DMS 273 small cell lung, with KM20L2 colon, in the assay on M19-MEL melanoma, with SNB-78 CNS and with XF 498 CNS was greater than 100 µM throughout.

As for `COCCn1cc(-c2csc(-c3c[nH]c4ccc(Br)cc34)n2)c2cccnc21`, in the assay on NCI/ADR-RES ovarian, the GI50 is 2.86 µM and the TGI was greater than 100 µM.

With `Cc1cc(Cl)cc(Cc2cc(Cl)cc(C)c2O)c1O`, in the assay with NCI/ADR-RES ovarian, the GI50 was 2.07 µM and the TGI is 5.95 µM.

Consider `COC(=O)[C@]12CC[C@@H](C)[C@H](C)[C@@H]1C1=CC[C@@H]3[C@@]4(C)C(C=O)=C[C@@](C)(COC(=O)/C=C/c5ccccc5)[C@@H]4[C@H](O)C[C@@]3(C)[C@]1(C)CC2`, for which, in the assay with NCI/ADR-RES ovarian, the GI50 is 3.64 µM and the TGI came to 19.1 µM.
